Activity calls are given as the source filed them.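 The calls were made as follows: active = Compounds that kill half the cells at a concentration of 5 micromolar or below, from the fitted or estimated CC50; inactive = CC50 above 5 micromolar.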
Tested on: Jurkat E6.1 viability, ATP luminescence, 48 h
Assay: Jurkat E6.1 cell cytotoxicity, CC50 determination, dose response, cytotoxicity control, ATP luminescence, 48 h, 60K MLSMR (AID 464)

SMILES	CC50
CNC(=O)N(C1=NCC(C)(C)S1)c1ccc(F)c(Cl)c1	10.4 µM (inactive)
CCn1c(SCC(=O)c2c[nH]c3ccccc23)nnc1-c1cccs1	8.26 µM (inactive)
COc1cc2c(O)c3c(c(-c4ccc5c(c4)OCO5)c2cc1OC)C(=O)OC3	5.28 µM (inactive)
Cc1c(C(=O)OC2CCCC2)[nH]c2c1C(=O)CC(c1ccco1)C2 (configuration not stated)	0.167 µM
CCOC(=O)c1c(C)c(C(=O)Nc2ccc3c(c2)OCCO3)c(C)n1CC	7.96 µM (inactive)
CCOc1ccc(N(CC)S(=O)(=O)c2ccc3c(c2)oc(=O)n3C)cc1	2.94 µM
O=C(NCc1cccnc1)NC1(C(F)(F)F)Oc2ccc(Cl)cc2O1 (configuration not stated)	8.08 µM (inactive)
COc1ccc(-c2nnnn2-c2ccccc2OC)cc1	8.67 µM (inactive)
COc1ccc(NS(=O)(=O)c2cc(OC)ccc2NC(=O)c2cc(C)oc2C)cc1	2.25 µM
COc1cc(C(=O)OCC(=O)c2cc(C)n(C)c2C)cc(OC)c1OC	> 4.4 µM (inactive)
CCOC(=O)c1ccc(Oc2cc(C)nc(SC)n2)cc1	7.92 µM (inactive)
CCCCCCn1ccc(=N)cc1	5.08 µM (inactive)
CC(=O)Nc1ccccc1OCC(=O)c1cc(C)n(Cc2cccs2)c1C	0.16 µM
CN(C)c1ccc(C(=O)c2ccc(N(C)C)c(N)c2)cc1N	8.53 µM (inactive)
CCOc1ccccc1C(=O)N1CCN(c2cccc(Cl)c2)CC1	0.095 µM
CCOc1ccccc1NC(=O)c1cccc(NC(=O)c2ccco2)c1	1.27 µM
CSCCOC(=O)c1[nH]c2c(c1C)C(=O)CC(c1ccco1)C2 (configuration not stated)	1.67 µM
CCCc1[nH]nc2c1C(c1ccc(Br)s1)C(C#N)=C(N)O2 (configuration not stated)	> 13 µM (inactive)
CCCCCCn1c(NCC)nc2c1c(=O)n(C)c(=O)n2C	2.83 µM
COC(=O)c1ccc(C)c(NS(=O)(=O)c2ccc3c(c2)OCCO3)c1	0.504 µM
Nc1nnnn1/N=C/C(Br)=C/c1ccccc1	> 13 µM (inactive)
CC(C)c1cc(C(=O)Nc2sc3c(c2C#N)CCC3)no1	15.6 µM (inactive)
Cc1cc(NC(=O)CCCS(=O)(=O)c2nc(-c3cccs3)cc(C(F)(F)F)n2)no1	2 µM
Cc1ccsc1C(=O)Nc1nnc(-c2ccco2)o1	24.2 µM (inactive)
CCOC(=O)C1CCN(CC(=O)Nc2c(C(=O)OC)[nH]c3ccc(Cl)cc23)CC1	31.2 µM (inactive)
N=c1c2c(n(Cc3ccc(Cl)cc3Cl)c3c1CCC3)CCCC2	2.26 µM

SMILES	CC50
CCOC(=O)C(C(C)=O)c1c(Br)c(O)c(O)c2c(C(=O)c3ccc(C)cc3)coc12 (configuration not stated)	6.14 µM (inactive)
COc1cc(C(=O)N2CCN(c3ccc(C)cc3C)CC2)cc(OC)c1OC	1.69 µM
CCn1c(-c2ccc(N(C)C)cc2)nc2ccccc21	5.93 µM (inactive)
O=C(c1ccc2c(c1)ncn2C1CCCCC1)N1CCC2(CC1)OCCO2	5.19 µM (inactive)
Cc1cc(=O)oc2cc(OCC(=O)N3c4ccccc4CC3C)ccc12 (configuration not stated)	0.756 µM
O=C(C1CCN(S(=O)(=O)c2cccc3cccnc23)CC1)N1CCN(c2ccc(Cl)cc2)CC1	19.5 µM (inactive)
CCOc1ccc(N(CC(=O)Nc2ccccc2C)S(=O)(=O)c2c(C)noc2C)cc1	1.35 µM
Cc1noc(C)c1CSc1nc2[nH]ncc2c(=O)n1-c1ccccc1	0.188 µM
CCOC(=O)c1[nH]c2c(c1C)C(=O)CC(c1ccco1)C2 (configuration not stated)	0.201 µM
COc1ccc(-c2nnc(SCC(=O)Nc3ncc(C)s3)n2-c2ccccc2)cc1OC	9.26 µM (inactive)
CC1CC(C)CN(S(=O)(=O)c2ccc(C(=O)NCCCn3ccnc3)cc2)C1 (configuration not stated)	1.08 µM
CN(C)c1ccc2c(c1)OC(N)=C(C#N)C2c1cccc(F)c1 (configuration not stated)	0.106 µM
CCN(CC)c1nc(C#N)cc(-c2ccc(OC)cc2)n1	5.36 µM (inactive)
COc1cccc(Cn2c(-c3nonc3N)nc3ccccc32)c1	1.06 µM
O=C(CN1CCC(c2nc3ccccc3s2)CC1)NCc1cccs1	18 µM (inactive)
CCN(C1CCCCC1)S(=O)(=O)c1ccc(S(=O)(=O)NCc2ccncc2)cc1	5.32 µM (inactive)
CCOC(=O)C(C)Oc1cccc2c(=O)n(CC(=O)NCc3ccc4c(c3)OCO4)ccc12 (configuration not stated)	3.9 µM
O=C(Nc1ccc(Cl)cn1)c1cccc(F)c1	> 4.4 µM (inactive)
COc1ccc(OC)c(C2CC(=O)c3c([nH]c(C(=O)OC(C)C)c3C)C2)c1 (configuration not stated)	1.08 µM
Cc1cc(NC(c2cccnc2)c2ccc3cccnc3c2O)no1 (configuration not stated)	3.25 µM
CCOC(=O)C(C)Sc1nc2c(cnn2-c2ccc(C)cc2)c(=O)[nH]1 (configuration not stated)	> 40 µM (inactive)
Cc1cc(/C=N/n2cnnc2)c(C)n1-c1ccc(OCc2ccc(F)cc2)cc1	> 13 µM (inactive)
Cc1cc(C)cc(NC2=NC3(CCCCC3)N=C(N)N2)c1	4.97 µM
CCCCOc1ccccc1NC(=O)Cn1c(-c2nonc2N)nc2ccccc21	0.733 µM
c1csc(CCNc2ncnc3sc4c(c23)CCC4)c1	13.2 µM (inactive)
CC(C)C(=O)NC(c1ccco1)c1ccc2cccnc2c1O (configuration not stated)	2.89 µM

SMILES	CC50
CCOC(=O)N1CCN(CC(=O)Nc2c(C(=O)OC)[nH]c3ccc(Cl)cc23)CC1	> 40 µM (inactive)
O=C(Nc1ccc2c(c1)CCC2)C1CCN(c2c3c(nc4ncnn24)CCC3)CC1	4.5 µM
Cc1cnc(C(=O)Nc2cccc3cccnc23)cn1	0.803 µM
Cc1cc(NC(=O)CSc2nc3ccccc3c(=O)n2C2CCCC2)no1	0.469 µM
Cc1noc(C)c1COc1cccc(C(=O)OCC(=O)N2CC(=O)Nc3ccccc32)c1	6.33 µM (inactive)
COc1ccccc1C(=O)N1CCN(c2cccc(C(F)(F)F)c2)CC1	2.09 µM
O=C(Nc1ccc(N2CCOCC2)cc1)Nc1ccc2nc(-c3ccco3)c(-c3ccco3)nc2c1	10.4 µM (inactive)
CC(C)Cn1c(N)c(C(=O)CSc2ccc3c(c2)OCCO3)c(=O)n(C)c1=O	> 40 µM (inactive)
O=c1oc2ccccc2cc1NCc1ccccc1O	> 40 µM (inactive)
Cc1ccc(S(=O)(=O)Nc2cccc3ncccc23)s1	10.3 µM (inactive)
COc1ccccc1S(=O)(=O)Cc1ccc(C(=O)N2CCN(c3cccc(Cl)c3)CC2)o1	3.75 µM
CN(CCCC(=O)Nc1ccncc1)S(=O)(=O)c1ccc(Cl)cc1	5.53 µM (inactive)
CCOC(=O)CS(=O)(=O)c1nc(-c2ccccc2)cc(C(F)(F)F)n1	3.42 µM
O=C(NCC(c1cccs1)N1CCOCC1)c1ccc(Cl)s1 (configuration not stated)	0.882 µM
COc1cc(NC(=O)c2cc(-c3cccs3)on2)cc(OC)c1OC	12.8 µM (inactive)
Cc1ccccc1S(=O)(=O)Cc1ccc(C(=O)N2CCN(c3cccc(C)c3C)CC2)o1	2.27 µM
CCOc1ccccc1C1CC(=O)NC2=C1C(=O)CCC2 (configuration not stated)	3.6 µM
O=S(=O)(NCc1ccncc1)c1ccc(Br)s1	1 µM
CCOC(=O)N1CCN(c2c(NCc3cccs3)c(=O)c2=O)CC1	5.79 µM (inactive)
O=C1CN=C(c2cccs2)c2c(sc3c2CCCC3)N1	7.46 µM (inactive)
COc1ccc(CCNc2c(C)c(C)nc3ncnn23)cc1	> 13 µM (inactive)
O=C(Nc1nnc(-c2cccs2)o1)c1cccc(C(F)(F)F)c1	25.7 µM (inactive)
CCOC(=O)c1c(C)c(C(=O)Nc2cc(OC)ccc2OC)c(C)n1CC	11.4 µM (inactive)
O=C(CSc1ncnc2sc3c(c12)CCCCC3)NCc1ccco1	9.83 µM (inactive)
CCOC(=O)c1[nH]c(C)c(C(=O)Nc2ccccc2C)c1C	0.63 µM

Source: PubChem BioAssay AID464 (The Scripps Research Institute Molecular Screening Center, 2006)
